Data taken from US20240139162A1, “Benzophenanthridine Alkaloids and Their Methods of Use” (Chengdu Anticancer Bioscience, LTD., priority 2019, published 2024).
Entries after “also recorded” stand apart in the source; their conditions may differ.

Experiments:
RPE-A19 cells = test: IC50 in RPE-A19 cells (Table 2); type: cell-based, human; conditions: Homo sapiens, 72 h, RPE-A19, treatment 72 h; read-out: IC50
Method: (§1) Cells were split, plated in appropriate culture media and allowed to adhere. After 18 hours, corynoline and acetylcorynoline were added to a cell line selected from below. At 72 h or 96 h, MTT was added and at 75 h or 99 h, the A570 nm was recorded. The concentration ranged from 0.02 μM to 40 μM.
(§2) The effect of the compounds chelidonine and protopine on cell division was assessed similarly to corynoline and acetylcorynoline above. As described in Example 6 above, as cells enter and become arrested in mitosis, they detach from the plate surface and appear as rounded cells with a smooth surface membrane. RPE-MBC cells (ectopically expressing oncogenes MYC and Bcl2) were treated with DMSO, chelidonine and protopine, and compared against controls Michael's ketone (MK) and taxol.

RPE-Neo cells = test: IC50 in RPE-Neo cells (Table 2); type: cell-based, human; conditions: Homo sapiens, 72 h, RPE-Neo, treatment 72 h; read-out: IC50
Method: as §1
The following RPE cell lines were used in these studies: RPE NEO, RPE MBH, RPE MBC, RPE MA, RPE MP, RPE MI, and RPE MYC Nick. This RPE series were derived from human retinal pigment epithelium and then stably transfected with an hTERT expression construct for immortalization. The resulting cell line was then engineered to overexpress the MYC oncogene (RPE-MYC) or a Neomycin selection marker gene (RPE-NEO). In RPE-MYC cells, a variety of other oncogenes such as Myr-AKT, BCL2, ID1 and PI3K^E45k were further introduced individually to generate the cell lines RPE MA, RPE MBC, RPE MI, RPE MP, respectively. As a control, H2BGFP was introduced into RPE-MYC cells to generate RPE MBH.
as §2

RPE-MBC cells [1] = test: Mitotic arrest (cell round-up, phospho-Histone H3) and polyploidy (DAPI) assay; type: cell-based, human
Method: (§3) For screening for bioactive fractions, cells were cultured in 96-well plates, and exposed to crude extracts, partially purified fractions or pure compounds at the concentrations indicated in the figure legends. Exposure was for 24 or 48 hours before analysis of cells for either an arrest in mitosis using an inverted microscope or for a change in DNA content after 4′,6′-diamidino-2-phenylindole (DAPI) staining by fluorescence microscopy.
Cells were cultured on coverslips in a 6-well plate, fixed with 4% paraformaldehyde and then permeabilized with 0.3% Triton X-100 in PBS. Primary antibody was detected with Texas-Red-conjugated secondary antibodies that were purchased from Jackson ImmunoResearch. After immunostaining, cells were mounted on microscope slides with 4′,6′-diamidino-2-phenylindole (DAPI)-containing Vectashield mounting solution (Vector Laboratories) for detection of fluorescence with an EVOS FL fluorescence microscope (ThermoFisher).
Cellular “round-up” was used as a surrogate marker for mitotic arrest and could easily be assayed using an inverted tissue culture microscope. […] Mitotic arrest was judged by cell round-up observed under an inverted tissue culture microscope 24 hours after exposing cells to the library.
As cells enter and become arrested in mitosis, they detach from the plate surface and appear as rounded cells with smooth surface membrane, distinct from detached cells that are undergoing programmed cell death. Simple visual screening method was used to assay thousands of extracts. […] To identify bioactive components that are able to interfere with mitosis, 3 kg of Corydalis longicalcarata rhizome were recollected and performed bioactivity-guided extraction, isolation, and purification. The air dried and powdered material was extracted with 70% ethanol assisted by exposure to ultrasonic waves.

RPE-MBC cells [2] = test: IC50 in RPE-MBC cells (Table 1); type: cell-based, human; conditions: Homo sapiens; RPE-MBC, treatment 72 h; read-out: IC50
Method: as §3, with “Retinal pigment epithelial cells transformed by ectopic MYC and Bcl-2 expression (RPE-MBC cells) have been described previously (e.g., Goga et al., 2007, Nat. Med., 13 (7):820-827) and were cultured in DMEM supplemented with 5% fetal bovine serum in a humidified incubator that was maintained at 5% CO2. For” for “For”
The RPE series were derived from human retinal pigment epithelium and then stably transfected with a hTERT expression construct for immortalization. The resulting cell line was then engineered to overexpress the MYC and BCL2 oncogenes, generating the RPE MBC cell line. This cell line mimics cancer cells that overexpress MYC and Bcl2, and readily forms viable polyploid cells when cytokinesis is prevented.
as §1, §2

IMR 90 cells = test: IC50 in IMR 90 cells (Table 2); type: cell-based; conditions: Homo sapiens, IMR-90, 72 h, IMR 90, treatment 72 h; read-out: IC50
Method: as §1, §2

With `CC(=O)O[C@H]1Cc2cc3c(cc2[C@H]2N(C)Cc4c(ccc5c4OCO5)[C@@]12C)OCO3` [Acetylcorynoline, (5bR,6S,12bR)-5b,6,7,12b,13,14-Hexahydro-5b,13-dimethyl-[1,3]benzodioxolo[5,6-c]-1,3-dioxolo[4,5-i]phenanthridin-6-ol 6-acetate] the IC50 (RPE-A19 cells) was 35.2 µM, the IC50 (RPE-Neo cells) was > 40 µM and the “polyploidy compared to DMSO control” value (RPE-MBC cells [1]; 10 μM and 20 μM, 48 hours) was “polyploidy was induced”. For the same molecule, the mitotic arrest (RPE-MBC cells [1]; 24 hours after treatment) was “can arrest mitosis within 24 hours of treatment; also recorded: Nearly all cells entered and arrested in mitosis”, the “polyploidy (DAPI staining)” value (RPE-MBC cells [1]; 48 hours after treatment) was “induce polyploidy at 48 hours; also recorded: induced polyploidy; also recorded: Polyploidy was observed; also recorded: demonstrates polyploidy” and the “minimal effective concentration for mitotic arrest and polyploidy relative to corynoline” value (RPE-MBC cells [1]; FIG. 15) was 2 fold. The “mitotic arrest and polyploidy, dependence on concentration” value (RPE-MBC cells [1]; FIG. 15) was “concentration-dependent”, the “persistence of the arrest of cells in mitosis” value (RPE-MBC cells [1]; within 48-hour treatment) was “transient” and the IC50 (RPE-MBC cells [2]) was 9.94 µM. For the same molecule, the IC50 (IMR 90 cells) was > 40 µM.
